Test results: US10280158B2, “Immune adjustment compound, use thereof and pharmaceutical composition comprising same” (SUZHOU CONNECT BIOPHARMACEUTICALS, LTD., priority 2013, dated 2019)

Assay: In vivo pharmacokinetic experiment, intravenous administration
Set-up: species or system Sprague Dawley rats
Experimental: In this Example, the pharmacokinetic properties of compounds 1, 2, 3, 4 and 5 were evaluated via. i.v. and p.o. dosing to Sprague Dawley rats.
Experimental animals used in this Example and hereinafter were male SD rats of 7-9 weeks old, with body weight ranging from 186 to 231 g, which were purchased from Beijing Vital River Laboratory Animal Technology Co., Ltd. The animals were quarantined by veterinarian for 5 days after purchase, then animals had passed quarantine inspection were selected to be tested under SPE conditions, wherein the tested animals are assigned into 3 rats per group as follows.
Intravenous administration group: 1.61 mg of each of compounds 1-5 was respectively prepared into a solution of 1 mg/mL by using 1.610 mL 10% HP-β-CD as a diluent. Each solution was vortexed 1-2 mins after mixed fully, and then was ultrasonically treated for 28-30 mins. The obtained solution was used as medicine administrated to intravenous administration group, and the administration was conducted with a dose of 1 mL/kg body weight of each rat.
For both oral administration group and intravenous administration group, blood samples were collected at 0.0833 h (5 min), 0.25 h (15 min), 0.5 h, 1 h, 2 h, 4 h, 8 h, and 24 h after administration. After isoflurane anesthesia 0.3 mL whole blood was collected from orbital venous plexus of the animals at each time point. The animals would be euthanized after all samples were collected.
The collected blood samples were placed in EP tubes containing heparin sodium (about 10 μl, 1000 IU/mL), which were then placed in trash ice immediately, and centrifuged at 4,000 rpm and a low temperature (4° C.) for 5 minutes. The plasma was isolated rapidly and then stored at −20° C. until analysis.
The concentration of each compound in blood was measured by LC-MS/MS-001 (Q-trap-3200) with osalmide as internal standard material, as follows. 24 μL blank plasma was added into 6 μL plasma sample (5 times of dilution), and then a solution of acetonitrile containing 150 μL internal standard material (osalmide in 100 μg/mL) was added in. The mixture was shaken for 5 minutes, and then centrifuged at 4,000 rpm for 5 minutes. 2 μL of the obtained sample was implanted into LC-MS/MS for analysis. As for undiluted plasma sample, 30 μL of it was added into a solution of acetonitrile containing 150 μL internal standard material (osalmide in 100 μg/mL). The mixture was shaken for 5 minutes, and then centrifuged at 4,000 rpm for 5 minutes. 2 μL of the obtained sample was implanted into LC-MS/MS for analysis.
As for data analysis, WinNolin (V6.2) non-compartment model (NCA) was used for calculating main metabolic pharmacokinetic parameters including t1/2, AUC(0−t), AUCinf, V, Cl, MRT, etc., and Microsoft Office EXCEL was used for calculating mean values, standard deviations and coefficients of variation.

[1] = intravenous administration, rats, in words
[2] = male, Sprague-Dawley, rat, plasma, intravenous administration (1 mg/kg), SD rats

CC(C)Cc1ccc(-c2nc(-c3ccc(CN4CC(C(=O)O)C4)c(F)c3)no2)cc1 [Compound 2, 1-{2-fluoro-4-[5-(4-isobutylphenyl)-1,2,4-oxadiazol-3-yl]-benzyl}-3-azetidine carboxylic acid]
mean residence time (MRT) compared with compound 1 [1]: reduced significantly
terminal half-life compared with compound 1 [1]: reduced significantly
AUC(0-inf) [2]: 2010 ± 146 ng·h/mL
MRT inf [2]: 6.28 ± 0.44 h
clearance [2]: 8.32 mL/min/kg
half-life (male, Sprague-Dawley, rat, plasma, intravenous administration (1 mg/kg), SD rats, read-out: T½ (converted)): 328 ± 25.2 min
Vd (male, Sprague-Dawley, rat, plasma, intravenous administration (1 mg/kg), SD rats, read-out: Vss): 3.12 ± 0.101 L/kg
